Assay results taken from patent publication US20260315434A1, “USE OF GUAIACOL SESQUITERPENE LACTONE DERIVATIVES” (NANJING UNIVERSITY OF CHINESE MEDICINE, priority 2023, published 2026).
Like-named read-outs stand apart in the source and are kept apart here. Values belong to the molecule of their own block, whether it stands above or below them.

What was measured:
T cells / MDSCs = test: Promotion of T cell proliferation in a co-culture model of MDSCs and T cells; format: cell-based, mouse; conditions: for activation at 1 µM: Mus musculus, T-cell, 12 h
Summary of the method: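 Bone-marrow MDSCs, after compound treatment, were co-cultured 48 h at 1:1 with CFDA-SE-labelled (10 μM solution), activated splenic T cells. Proliferation of CD3+ T cells was read by flow cytometry.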

MDSCs = test: Proportion of MDSCs in tumor and spleen of H22 xenograft mice (flow cytometry); format: in vivo, BALB/c mice; conditions: for Spleen MDSCs (%) / Tumor-associated MDSCs (%): 40 μmol/kg/day, oral, 2 weeks, flow cytometry
Method: Once all tumors were dissected, nail-sized tumor pieces were transferred to 1.5 mL Eppendorf tubes and minced with scissors. Transfer the minced tumor tissue suspension to a 15 mL centrifuge tube containing 3-5 mL of digestive enzymes (Collagenase IV 1 mg/mL, Hyaluronidase 1 mg/mL, DNase 120 U/mL). Incubate at 200 rpm and 37° C. for 1 hour. After digestion, pass the mixture through a 200-mesh sieve to obtain the tumor cell suspension. Centrifuge the resulting tumor suspension at 1600 rpm for 5 min, aspirate the supernatant, resuspend cells in 1 mL of 1×PBS per tube. Transfer the cell suspension to a 1.5 mL Eppendorf tube, centrifuge at 1600 rpm for 5 min, remove the supernatant, resuspend cells in 100 μL of 1×PBS per tube, add 1 μL of dead/live dye to each tube, mix thoroughly, and incubate at room temperature in the dark for 15 min. […] Position the spleen on a 200-mesh cell strainer. Gently press the spleen using a 10 mL syringe needle. […] Transfer the washed splenocyte suspension into a 15 mL centrifuge tube. Centrifuge at 1600 rpm for 5 min to collect cells. Wash once with 1×PBS. Add 3 mL red blood cell lysis buffer (diluted with ddH2O) to each tube and incubate for 5 min. After lysis, add 10 mL 1×PBS to each tube to terminate lysis. Centrifuge at 1600 rpm for 5 min. Add 1 mL 1×PBS to each 15 mL centrifuge tube, transfer to 1.5 mL EP tubes, and centrifuge at 1600 rpm for 5 min. Add 1 mL 1×PBS to each tube containing stained tumor cells and lysed spleen cells for one wash, centrifuge at 1600 rpm for 5 min, and remove the supernatant. Resuspend tumor cells and spleen cells separately in 100 μL 1×PBS. Add 1 μL FcX™ antibody to each tube and incubate at room temperature in the dark for 10 min. After incubation, sequentially add 1 μL each of CD45, CD11b, Gr1 antibodies. Incubate at 4° C. in the dark for 30 min. After incubation, wash once with 1×PBS, discard the supernatant, resuspend cells in 300 μL 1×PBS, filter the membrane into a flow cytometry tube, and proceed to instrument analysis.

[1] = Conversion (release) of prodrug salts to parent compound in HEPES buffer pH 7.4; format: in vitro ADME; conditions: for Release rate (conversion to Compound 1): HEPES pH 7.4, 37 °C; for degraded at 1 h / degraded at 2 h / degraded at 4 h / degraded at 8 h / degraded at 12 h: hepes buffer, pH 7.4, HEPES pH 7.4, 37 °C
Summary of the method: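 Salt dissolved in water, mixed 1:1 with HEPES solution pH 7.4 (NaCl, KCl, Na2HPO4, glucose) and held at 37° C. At 1, 2, 4, 8 and 12 h, samples were methanol-quenched, centrifuged and analysed by reversed-phase HPLC at 210 nm, with peak areas recorded for conversion to parent compound.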

[2] = Conversion (release) of prodrug salts to parent compound in mouse plasma; format: in vitro ADME; conditions: 37 °C; for metabolised at 1 h / metabolised at 2 h / metabolised at 4 h / metabolised at 8 h / metabolised at 12 h: mouse, plasma
Summary of the method: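 Salts (0.6 mg in 250 μL water) were mixed 1:1 with heparinized mouse plasma or HEPES pH 7.4 and incubated at 37 °C. Samples were methanol-quenched and taken at 1–12 h. Parent compound was quantified by C18 HPLC-UV at 210 nm using peak areas.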

[3] = system: inflammatory cytokines (TNF, IL-6, IL-1) in renal tissue; test: Folic acid-induced acute kidney injury, renal inflammatory factor mRNA; format: in vivo, C57BL/6 mice; conditions: folic acid acute model
Method: Except for the normal group, all other mice were administered folic acid (250 mg/kg) dissolved in 0.9% NaHCO3 solution via intraperitoneal injection to establish an acute kidney injury model.
The blood was allowed to stand at room temperature for 2 hours, then centrifuged at 3000 rpm for 20 minutes. Serum was aspirated, aliquoted, and stored at −70° C. for future use. Following blood collection, euthanize mice by cervical dislocation. Perform laparotomy to remove kidneys, dissect out perirenal fat and capsules. […] Paraffin-embedded specimens undergo HE staining; remaining tissue is stored at −70° C. for future use.

[4] = compared with solvent control, result in words
[5] = 1 h, read-out: Release rate (conversion to Compound 83)
[6] = 2 h, read-out: Release rate (conversion to Compound 83)
[7] = 4 h, read-out: Release rate (conversion to Compound 83)
[8] = 8 h, read-out: Release rate (conversion to Compound 83)
[9] = 12 h, read-out: Release rate (conversion to Compound 83)
[10] = 1 h, read-out: Release rate (conversion to Compound 82)
[11] = 2 h, read-out: Release rate (conversion to Compound 82)
[12] = 4 h, read-out: Release rate (conversion to Compound 82)
[13] = 8 h, read-out: Release rate (conversion to Compound 82)
[14] = 12 h, read-out: Release rate (conversion to Compound 82)

Compound: C=C1C(=O)O[C@@H]2[C@H]3C(C)=CC[C@@]34O[C@@]4(C)CC[C@@H]12 [Arg, Arglabin, reference compound]
activation at 1 µM (T cells / MDSCs; read-out: T-cell proliferation rate (%)): > 40%
proportion of MDSCs in tumor tissues and spleens (MDSCs; mouse, in vivo): significantly reduced

Compound: CN(C)C[C@@H]1C(=O)O[C@H]2[C@H]1CC[C@@]1(C)C[C@]13CC[C@@](C)(O)[C@H]23 [Compound 20]
Release rate (conversion to Compound 1) ([1]; 1 h, 60 min): 6.2%
Release rate (conversion to Compound 1) ([1]; 2 h, 120 min): 13.8%
Release rate (conversion to Compound 1) ([1]; 4 h, 240 min): 21.7%
Release rate (conversion to Compound 1) ([1]; 8 h, 480 min): 44.3%
Release rate (conversion to Compound 1) ([1]; 12 h, 720 min): 59.1%
Release rate (conversion to Compound 1) ([2]; 1 h, 60 min): 7.3%
Release rate (conversion to Compound 1) ([2]; 2 h, 120 min): 12.9%
Release rate (conversion to Compound 1) ([2]; 4 h, 240 min): 28.6%
Release rate (conversion to Compound 1) ([2]; 8 h, 480 min): 46.8%
Release rate (conversion to Compound 1) ([2]; 12 h, 720 min): 62.9%
Il1 mRNA expression, kidney ([3]; 1 mg/kg oral, 1 mg/kg): 1.06 ± 0.33
Il6 mRNA expression, kidney ([3]; 1 mg/kg oral, 1 mg/kg): 1.55 ± 0.28
Tnf mRNA expression, kidney ([3]; 1 mg/kg oral, 1 mg/kg): 2.31 ± 0.72
Spleen MDSCs (%) (MDSCs): 23.10 ± 5.35 %
Tumor-associated MDSCs (%) (MDSCs): 7.86 ± 6.19 %
proportion of MDSCs in tumor tissues and spleens (MDSCs; [4]): significantly reduced

Compound: CN(C)C[C@@H]1C(=O)O[C@H]2[C@H]1CC[C@@]1(C)C[C@]13CC[C@@](C)(O)[C@H]23 [Compound 21]
Release rate (conversion to Compound 1) ([1]; 1 h, 60 min): 3.3%
Release rate (conversion to Compound 1) ([1]; 2 h, 120 min): 10.2%
Release rate (conversion to Compound 1) ([1]; 4 h, 240 min): 18.1%
Release rate (conversion to Compound 1) ([1]; 8 h, 480 min): 38.9%
Release rate (conversion to Compound 1) ([1]; 12 h, 720 min): 51.9%
Release rate (conversion to Compound 1) ([2]; 1 h, 60 min): 5.4%
Release rate (conversion to Compound 1) ([2]; 2 h, 120 min): 10.7%
Release rate (conversion to Compound 1) ([2]; 4 h, 240 min): 17.9%
Release rate (conversion to Compound 1) ([2]; 8 h, 480 min): 39.3%
Release rate (conversion to Compound 1) ([2]; 12 h, 720 min): 55.4%
Il1 mRNA expression, kidney ([3]; 0.1 mg/kg oral): 2.07 ± 0.38
Il6 mRNA expression, kidney ([3]; 0.1 mg/kg oral): 6.47 ± 0.53
Tnf mRNA expression, kidney ([3]; 0.1 mg/kg oral): 2.60 ± 0.62
Il1 mRNA expression, kidney ([3]; 1 mg/kg oral, 1 mg/kg): 1.45 ± 0.23
Il6 mRNA expression, kidney ([3]; 1 mg/kg oral, 1 mg/kg): 5.61 ± 2.10
Tnf mRNA expression, kidney ([3]; 1 mg/kg oral, 1 mg/kg): 2.42 ± 0.35
T-cell proliferation rate (%) (T cells / MDSCs; 1 μM, MDSCs treated 12 hours, co-culture of MDSCs and T cells, compared to the control group): + (T-cell proliferation rate within the 0-20% range compared to the control group)

Compound: CC1=C2CC[C@@](C)(OC(=O)N3CCCCC3)[C@@H]2[C@H]2OC(=O)[C@@H](CN(C)C)[C@@H]2CC1 [Compound 102]
degraded at 1 h [1, 5]: 6.8%
degraded at 2 h [1, 6]: 14.6%
degraded at 4 h [1, 7]: 24.8%
degraded at 8 h [1, 8]: 43%
degraded at 12 h [1, 9]: 51.8%
metabolised at 1 h [2, 5]: 6.6%
metabolised at 2 h [2, 6]: 14%
metabolised at 4 h [2, 7]: 26%
metabolised at 8 h [2, 8]: 42.4%
metabolised at 12 h [2, 9]: 47.8%
Spleen MDSCs (%) (MDSCs): 30.37 ± 9.84 %
Tumor-associated MDSCs (%) (MDSCs): 32.11 ± 6.33 %
proportion of MDSCs in tumor tissues and spleens (MDSCs; [4]): significantly reduced

degraded at 1 h [1, 10]: 6.4%
degraded at 2 h [1, 11]: 14.2%
degraded at 4 h [1, 12]: 26%
degraded at 8 h [1, 13]: 45.6%
degraded at 12 h [1, 14]: 52.6%
metabolised at 1 h [2, 10]: 7.2%
metabolised at 2 h [2, 11]: 13.2%
metabolised at 4 h [2, 12]: 26.8%
metabolised at 8 h [2, 13]: 44.5%
metabolised at 12 h [2, 14]: 53.4%
Compound: CC1=C2CC[C@@](C)(OC(=O)N3CCCC3)[C@@H]2[C@H]2OC(=O)[C@@H](CN3CCCC3)[C@@H]2CC1 [Compound 103]
Il1 mRNA expression, kidney ([3]; 0.1 mg/kg oral): 2.83 ± 1.00
Il6 mRNA expression, kidney ([3]; 0.1 mg/kg oral): 27.33 ± 11.81
Il1 mRNA expression, kidney ([3]; 1 mg/kg oral): 2.79 ± 1.31
Il6 mRNA expression, kidney ([3]; 1 mg/kg oral): 23.47 ± 6.54
Il1 mRNA expression, kidney ([3]; 10 mg/kg oral): 1.65 ± 1.00
Il6 mRNA expression, kidney ([3]; 10 mg/kg oral): 17.94 ± 9.61
activation at 1 µM (T cells / MDSCs; read-out: T-cell proliferation rate (%), 1 μM, MDSCs treated 12 hours, co-culture of MDSCs and T cells, compared to the control group): 20 to 40%
Spleen MDSCs (%) (MDSCs): 24.33 ± 5.02 %
Tumor-associated MDSCs (%) (MDSCs): 10.62 ± 6.50 %
proportion of MDSCs in tumor tissues and spleens (MDSCs; [4]): significantly reduced
